In the data set the test system is ncRNAs (SEQ ID NO 28-89). As to the kind of experiment: ncRNA arrays of melanocytes, keratinocytes, normal skin, melanoma cell lines and patient samples. Details: species or system human. Conditions: for ncRNA array expression, patient 2: melanoma patient 2 sample compared to normal skin; for ncRNA array expression, patient 3: melanoma patient 3 sample compared to normal skin; for ncRNA array expression, patient 4: melanoma patient 4 sample compared to normal skin; for ncRNA array expression, patient 5: melanoma patient 5 sample compared to normal skin; for ncRNA array expression, patient 6: melanoma patient 6 sample compared to normal skin; for ncRNA array expression, patient 7: melanoma patient 7 sample compared to normal skin; for ncRNA array expression, patient 8: melanoma patient 8 sample compared to normal skin; for ncRNA array expression, patient 9: melanoma patient 9 sample compared to normal skin; for ncRNA array expression, patient 10: melanoma patient 10 sample compared to normal skin; for ncRNA array expression, patient 19: melanoma patient 19 sample compared to normal skin; for ncRNA array expression, patient 20: melanoma patient 20 sample compared to normal skin; for ncRNA array expression, patient 21: melanoma patient 21 sample compared to normal skin; for ncRNA array expression, patient 22: melanoma patient 22 sample compared to normal skin; for ncRNA array expression, patient 23: melanoma patient 23 sample compared to normal skin; for ncRNA array expression, patient 24: melanoma patient 24 sample compared to normal skin; for ncRNA array expression, patient 25: melanoma patient 25 sample compared to normal skin; for ncRNA array expression, patient 26: melanoma patient 26 sample compared to normal skin; for ncRNA array expression, patient 27: melanoma patient 27 sample compared to normal skin; for ncRNA array expression, patient 28: melanoma patient 28 sample compared to normal skin; for ncRNA array expression, patient 29: melanoma patient 29 sample compared to normal skin; for ncRNA array expression, patient 30: melanoma patient 30 sample compared to normal skin. The protocol: An ncRNA array platform that contains over 10,000 putative (>200 nt) ncRNAs including most of the known ncRNAs in mouse and human was conducted to evaluate ncRNAs within melanoma. Lack of coding potential was estimated by an algorithm that scores various characteristics of protein-coding genes, including open reading frame length, synonymous/non-synonymous base substitution rates and similarity to known proteins. These arrays provide the first generation of tools designed to analyze the dynamic expression of a large subset of ncRNAs in human and mouse and to identify candidate genes for more detailed functional analysis. In addition to the ncRNA content, probes targeting mRNA content from RefSeq are also included, allowing discovery of coordinated expression with associated protein-coding genes. The result of these assays is a list of ncRNA genes (i.e. SEQ ID NO 28-89) and maps of their sequence boundaries. We have profiled total RNA isolated from melanocytes, keratinocytes, normal human skin, melanoma cell lines and melanoma patient samples to identify differentially expressed ncRNAs in cell lines and tissues. ncRNAs expression in all tested samples were compared to either melanocytes or normal skin. We have identified a group of ncRNAs that are specific for (a) melanocytes (b) Keratinocytes (c) Melanoma cell lines (d) Melanoma patients. […] Probe DNA sequences for this array include: AF086032 (SEQ ID NO 107) […] BC071821 (SEQ ID NO 108) […] C AK130193 (SEQ ID NO 109) […] AL109719 (SEQ ID NO 110) […] AF085888 (SEQ ID NO 111) […] T BC033879 (SEQ ID NO 112) […] AA AK024556 (SEQ ID NO 113) […] Probe nomenclature is standard genebank IDs given by NCBI and other organizations.
Keratinocytes specific signatures were subtracted and resultant ncRNAs were validated by qRT-PCR and Northern blots. Results point out the presence of a group of melanoma specific ncRNAs (i.e. SEQ ID NO 28-89).

These results are taken from patent publication US20110143948A1, “MOLECULAR SIGNATURES AND BIOMARKERS ASSOCIATED WITH MELANOMA AND METHODS OF USE THEREOF” (priority 2008, published 2011).

In the case of “SEQ ID NO 40 (GTTAAAGACTAAATTAGTGATTTGGGAGATCAAGCCAATGGGCTTGTCTAAAACCTAGTC; listed as DNA, chemistry not given here; listed as Homo sapiens)”, the “ncRNA array expression, patient 2” value was determined as 1.341; the “ncRNA array expression, patient 3” value came to 1.98; the “ncRNA array expression, patient 4” value was 2.261; the “ncRNA array expression, patient 5” value is on record as 0.52. Besides, the “ncRNA array expression, patient 6” value came to 1.498; the “ncRNA array expression, patient 7” value turned out to be 0.4373; the “ncRNA array expression, patient 8” value is on record as 1.771; the “ncRNA array expression, patient 9” value is listed as 0.4625. For the same substance, the “ncRNA array expression, patient 10” value is reported as 0.3577; the “ncRNA array expression, patient 19” value worked out at 0.3342; the “ncRNA array expression, patient 20” value turned out to be 0.9994; the “ncRNA array expression, patient 21” value is on record as 0.489. Moreover, the “ncRNA array expression, patient 22” value was 0.9011; the “ncRNA array expression, patient 23” value is reported as 1.125; the “ncRNA array expression, patient 24” value is reported as 0.452; the “ncRNA array expression, patient 25” value turned out to be 2.17. The “ncRNA array expression, patient 26” value is given as 2.021; the “ncRNA array expression, patient 27” value is recorded as 1.467; the “ncRNA array expression, patient 28” value was found to be 1.364; the “ncRNA array expression, patient 29” value came out at 1.245. Also, the “ncRNA array expression, patient 30” value is given as 0.7348.
Regarding “SEQ ID NO 41 (CTCGTAACACTGGGAAAACTGCATACAATATTTAGAAGGAACACTAATACAGCAGAATCT; listed as DNA, chemistry not given here; listed as Homo sapiens)”, the “ncRNA array expression, patient 2” value is given as −2.529; the “ncRNA array expression, patient 3” value is given as −2.702; the “ncRNA array expression, patient 4” value is listed as −2.655; the “ncRNA array expression, patient 5” value was −2.566. Besides, the “ncRNA array expression, patient 6” value was −2.676; the “ncRNA array expression, patient 7” value is −2.596; the “ncRNA array expression, patient 8” value is listed as −2.699; the “ncRNA array expression, patient 9” value is on record as −2.456. Besides, the “ncRNA array expression, patient 10” value was −2.262; the “ncRNA array expression, patient 19” value was −0.5732; the “ncRNA array expression, patient 20” value is reported as −2.545; the “ncRNA array expression, patient 21” value is reported as −2.574. Also, the “ncRNA array expression, patient 22” value is reported as −2.212; the “ncRNA array expression, patient 23” value is −1.1449; the “ncRNA array expression, patient 24” value is −2.6637; the “ncRNA array expression, patient 25” value is reported as −2.4383. Also, the “ncRNA array expression, patient 26” value is given as −2.458; the “ncRNA array expression, patient 27” value was −2.204; the “ncRNA array expression, patient 28” value is −2.5405; the “ncRNA array expression, patient 29” value was −2.614. Also, the “ncRNA array expression, patient 30” value worked out at 0.7101.
Consider “SEQ ID NO 42 (TAGACATAGGTTAGAGGGGGAACAGTGCTTAAAATTCCATGGAACTAAGATTTTTTTTAT; listed as DNA, chemistry not given here; listed as Homo sapiens)”, for which the “ncRNA array expression, patient 2” value is −1.5031; the “ncRNA array expression, patient 3” value is −1.941; the “ncRNA array expression, patient 4” value is recorded as −1.837; the “ncRNA array expression, patient 5” value is −1.916. In addition, the “ncRNA array expression, patient 6” value is recorded as −1.445; the “ncRNA array expression, patient 7” value is −1.996; the “ncRNA array expression, patient 8” value is −2.073; the “ncRNA array expression, patient 9” value is listed as −1.562. In addition, the “ncRNA array expression, patient 10” value is reported as −0.8067; the “ncRNA array expression, patient 19” value is recorded as −2.231; the “ncRNA array expression, patient 20” value is on record as −1.775; the “ncRNA array expression, patient 21” value was −1.59. Moreover, the “ncRNA array expression, patient 22” value is listed as −1.26; the “ncRNA array expression, patient 23” value is listed as −0.1085; the “ncRNA array expression, patient 24” value is given as −1.66; the “ncRNA array expression, patient 25” value was −1.5976. For the same substance, the “ncRNA array expression, patient 26” value is recorded as −1.684; the “ncRNA array expression, patient 27” value is given as −1.038; the “ncRNA array expression, patient 28” value is listed as −1.339; the “ncRNA array expression, patient 29” value is listed as −0.5812. The “ncRNA array expression, patient 30” value came to 1.333.
As for “SEQ ID NO 43 (CTTAATCCACATTTGTTTTGAATTTTTCTGATTCCTATAGTACCATACTCTGATGCCTAT; listed as DNA, chemistry not given here; listed as Homo sapiens)”, the “ncRNA array expression, patient 2” value is −1.3; the “ncRNA array expression, patient 3” value is listed as −1.272; the “ncRNA array expression, patient 4” value is recorded as −1.462; the “ncRNA array expression, patient 5” value is −1.269. Further, the “ncRNA array expression, patient 6” value is recorded as −1.488; the “ncRNA array expression, patient 7” value was −1.541; the “ncRNA array expression, patient 8” value was −1.511; the “ncRNA array expression, patient 9” value is −1.226. The “ncRNA array expression, patient 10” value is −1.371; the “ncRNA array expression, patient 19” value is on record as −1.531; the “ncRNA array expression, patient 20” value is listed as −1.239; the “ncRNA array expression, patient 21” value is reported as −1.321. Further, the “ncRNA array expression, patient 22” value is −1.451; the “ncRNA array expression, patient 23” value is −1.442; the “ncRNA array expression, patient 24” value is −1.2517; the “ncRNA array expression, patient 25” value was −1.544. Also, the “ncRNA array expression, patient 26” value was −1.396; the “ncRNA array expression, patient 27” value is given as −1.339; the “ncRNA array expression, patient 28” value is −1.387; the “ncRNA array expression, patient 29” value is −1.366. The “ncRNA array expression, patient 30” value is listed as −0.1449.
On to “SEQ ID NO 44 (AGCCAACTCACGCTTAGGGAGAACTCATACCGCCTAAATATAAAGGCAATTATATATATA; listed as DNA, chemistry not given here; listed as Homo sapiens)”, for which the “ncRNA array expression, patient 2” value is given as −1.843; the “ncRNA array expression, patient 3” value is given as −1.705; the “ncRNA array expression, patient 4” value was −1.679; the “ncRNA array expression, patient 5” value is on record as −1.807. Also, the “ncRNA array expression, patient 6” value is −1.08; the “ncRNA array expression, patient 7” value is −1.932; the “ncRNA array expression, patient 8” value is −2.019; the “ncRNA array expression, patient 9” value is listed as −1.861. For the same substance, the “ncRNA array expression, patient 10” value is −0.3103; the “ncRNA array expression, patient 19” value is on record as −1.83; the “ncRNA array expression, patient 20” value is given as −1.651; the “ncRNA array expression, patient 21” value is listed as −1.7. For the same substance, the “ncRNA array expression, patient 22” value is −1.029; the “ncRNA array expression, patient 23” value is −1.95; the “ncRNA array expression, patient 24” value is reported as −1.768; the “ncRNA array expression, patient 25” value is reported as −1.979. Besides, the “ncRNA array expression, patient 26” value is listed as −1.501; the “ncRNA array expression, patient 27” value is given as −1.744; the “ncRNA array expression, patient 28” value is on record as −1.679; the “ncRNA array expression, patient 29” value is −1.809. Also, the “ncRNA array expression, patient 30” value is on record as 0.9814.
Take “SEQ ID NO 45 (ATTTAGAGAACATTTAAATCTGTAAGGAAGAAAATAATAACGACTCACAATTACATCATT; listed as DNA, chemistry not given here; listed as Homo sapiens)”: the “ncRNA array expression, patient 2” value is on record as −1.688; the “ncRNA array expression, patient 3” value is −1.56; the “ncRNA array expression, patient 4” value is −1.5912; the “ncRNA array expression, patient 5” value is listed as −1.519. Moreover, the “ncRNA array expression, patient 6” value was −0.7528; the “ncRNA array expression, patient 7” value is listed as −0.8782; the “ncRNA array expression, patient 8” value is −2.042; the “ncRNA array expression, patient 9” value was −1.8261. Moreover, the “ncRNA array expression, patient 10” value came out at 1.065; the “ncRNA array expression, patient 19” value is reported as −0.8583; the “ncRNA array expression, patient 20” value is on record as −1.797; the “ncRNA array expression, patient 21” value is on record as −1.759. Also, the “ncRNA array expression, patient 22” value is given as −1.25; the “ncRNA array expression, patient 23” value was determined as 0.2281; the “ncRNA array expression, patient 24” value is on record as −1.588; the “ncRNA array expression, patient 25” value was −2.096. Also, the “ncRNA array expression, patient 26” value is reported as −2.174; the “ncRNA array expression, patient 27” value was −1.86; the “ncRNA array expression, patient 28” value is reported as −2.069; the “ncRNA array expression, patient 29” value is given as −1.422. Moreover, the “ncRNA array expression, patient 30” value came to 0.8792.
